From US12552812B2, “Pyridone multiple-membered ring derivatives and use thereof” (priority 2021, dated 2026) come the findings set out here.

The subject of data set [1] is influenza virus A/PR/8/34 (H1N1). Kind of data set: Influenza virus cytopathic effect (CPE) assay in MDCK cells. The class given is cell-based. As to conditions: 120 h, 5 days, CCK8. A general note: Damage to the host cells serves as the signal in cytopathic effect assays.
Data set [2] is described as follows: in vitro. As to conditions: 2 μM, 37° C., 4 hours, read-out: Plasma protein binding (PPB) unbound (%). The format is in vitro ADME. The procedure:
(§1) Experimental purpose: To evaluate the protein binding rate of the compounds of the present disclosure in the plasma of CD-1 mouse, SD rat, and human using equilibrium dialysis.
(§2) Experimental protocol: The test compounds were diluted with dialysis buffer into the plasma of the above […] to prepare samples with a final concentration of 2 μM. The samples were then added to a 96-well equilibrium dialysis device and dialyzed using phosphate buffer solution at 37° C. for 4 hours. Warfarin was used as a control compound in the experiment. The concentration of the test compounds and warfarin in the plasma and buffer was determined using LC-MS/MS.

Data set [3] in a line: in vitro. As to conditions: CD-1; mouse (M) plasma, 2 μM, 37° C., 4 hours; read-out: Plasma protein binding (PPB) unbound (%). The format is in vitro ADME, CD-1 mouse. The procedure:
as §1, §2

The nature of data set [4]: in vivo. Also noted: species or system male SD rats. As to conditions: male, SD, iv, 1 mg/kg, rat, 1 mpk. The procedure:
Experimental purpose: To investigate the plasma pharmacokinetics of the compounds of the present disclosure in male SD rats after a single intravenous injection or an oral administration.
Experimental animals: male SD rats, 6 to 8 weeks old, weighing between 200 to 300 g;
Experimental procedure: Injection administration (i.v.) was carried out with a dose of 1 mpk, at a concentration of 0.50 mg/mL, with a vehicle of 40% DMAC+40% PG+20% (20% HP-β-CD+water). Oral administration (po) was carried out with a dose of 10 mpk, at a concentration of 1 mg/mL, with a vehicle of 3% DMSO+10% solutol HS+87% water.
(§3) Sample collection: At each time point, 0.03 mL of blood samples were collected from the experimental animals through a puncture of the saphenous vein. The actual blood collection time was recorded. All blood samples were kept in commercially available 1.5 mL EDTA-K2 anticoagulant tubes. After blood sample collection, DDV was added into the plasma matrix as a stabilizer, wherein the ratio of plasma to Dichlorvos (DDV) solution was 40:1. The DDV solution was a 40 mM DDV solution in acetonitrile/water (1:1). Within half an hour, the mixture was centrifuged at 4° C. and 3000 g for 10 minutes. The supernatant plasma was aspirated, quickly placed in dry ice, and stored in a −80° C. refrigerator for LC-MS/MS analysis.
Data analysis: A non-compartmental model in Phoenix WinNonlin 6.3 pharmacokinetic software was used to process the plasma concentration data. The pharmacokinetic parameters were calculated using the linear-log trapezoidal method: Cl (apparent clearance rate), T1/2 (the time required to clear half of the compound), Cmax (peak concentration), and AUC0-last (integral area under the concentration-time curve from 0 to the last sampling time).

Data set [5] can be described thus: in vivo. As to conditions: male, iv, 1 mg/kg, beagle dog, 1 mpk. Also noted: species or system male beagle dogs. Here is the method:
Experimental purpose: To investigate the plasma pharmacokinetics of the compounds of the present disclosure in male beagle dogs after a single intravenous injection or an oral administration.
Experimental animals: male beagle dogs, >6 months old, weighing between 6 to 12 kg.
Experimental procedure: Injection administration (i.v.) was carried out with a dose of 1 mpk, at a concentration of 1 mg/mL, with a vehicle of 10% DMAC+90% (20% HP-β-CD+water). Oral administration (po) was carried out with a dose of 10 mpk, at a concentration of 2 mg/mL, with a vehicle of 3% DMSO+10% solutol HS+87% water.
as §3, with “0.8” for “0.03”
Data analysis: A non-compartmental model in Phoenix WinNonlin 6.3 pharmacokinetic software was used to process the plasma concentration data. The pharmacokinetic parameters were calculated using the linear-log trapezoidal method: Cl, T1/2, Cmax, and AUC0-last.

Data set [6] concerns influenza A virus A/PR/8/34 (H1N1). The class given is in vivo, BALB/c mice. Particulars: for Survival rate (percentage): end of the experiment (day 14); for Maximum rate of weight loss / day N of maximum rate of weight loss: mouse, in vivo.

Read-outs that look alike come from different tables or passages of the source.

The term EC50 denotes the midpoint of the concentration-response curve. High values mean weaker potency, low ones greater potency. The term AUC(0-t) denotes exposure summed from dosing to a finite time, without extrapolation to infinity. A high value points to high exposure. A word on the clearance: it is the volume of plasma or blood freed of the substance per unit of time. Low values mean a low capacity for elimination, high ones a high capacity for elimination. One may read the half-life as the time needed for the level to fall by half in the phase considered. `O=C1c2c(O)c(=O)ccn2N([C@H]2c3ccc(F)c(F)c3C[Se]c3cccnc32)[C@@H]2COCCN12` [Compound 3]: the EC50 in data set [1] stood at 2.8 nM. Moreover, the fraction unbound in “in vitro [2]” (SD, rat (R) plasma) amounted to 0.313; in “in vitro [2]” (crab-eating macaque (C) plasma), 0.316; in “in vitro [2]” (dog (D) plasma), 0.246; in the data set “in vitro [2]” (human (H) plasma), 0.259; in “in vitro [3]”, 0.137. The values for the exposure AUC(0-t) in the data set “in vivo [4]” and in “in vivo [5]” were 0.171 µM·h and 0.83 µM·h, respectively. The values for the clearance in “in vivo [4]” and in the data set “in vivo [5]” were 178 mL/min/kg and 36.8 mL/min/kg, respectively. Besides, the half-life in “in vivo [4]” was 102 min; in the data set “in vivo [5]” it was 222 min.

In data set [1], `O=C1c2c(O)c(=O)ccn2N([C@@H]2c3ccc(F)c(F)c3C[Se]c3cccnc32)[C@@H]2COCCN12` [Compound 3′] returned an EC50 of 157 nM.

Regarding `COC(=O)OCOc1c2n(ccc1=O)N([C@H]1c3ccc(F)c(F)c3C[Se]c3cccnc31)[C@@H]1COCCN1C2=O` [Compound 4], in data set [6], the “Survival rate (percentage)” value came to 100%, the “Maximum rate of weight loss” value worked out at 7.03% and the “day N of maximum rate of weight loss” value was 3 days.

In the case of `COC(=O)OCOc1c2n(ccc1=O)N([C@@H]1c3ccccc3[Se]Cc3c1ccc(F)c3F)[C@@H]1COCCN1C2=O` [Compound 5], in data set [6], the “Survival rate (percentage)” value came to 100%, the “Maximum rate of weight loss” value turned out to be 13.77% and the “day N of maximum rate of weight loss” value came to 7 days.
